These results are taken from paper PMC3794980, “Identification of Conserved and HLA Promiscuous DENV3 T-Cell Epitopes” (PLoS Neglected Tropical Diseases, 2013).

Some targets named below: DRB1*1501 (Homo sapiens, UniProt P01903+P01911); DRB1*1302 (Homo sapiens, UniProt P01903+P01911, A100E/A169T/K41T/L162R/M171V/P40S/Q125H/Q178H/Q39Y/Q99D/R42S/S66N/T262R/V115G/W38E/Y61H); DRB1*0404 (Homo sapiens, UniProt P01903+P01911, A100R/A169T/F76Y/I96L/K127E/L162R/M171V/N62H/P40V/Q125Y/R42H/S133A/S149N/S66Y/V209L/W38E); DRB1*0405 (Homo sapiens, UniProt P01903+P01911, A100R/A169T/D86S/F76Y/I96L/K127E/L162R/M171V/N62H/P40V/Q125Y/R42H/S133A/S149N/S66Y/V115G/V209L/W38E); DRB1*0701 (Homo sapiens, UniProt P01903+P01911, A100R/A102G/A103Q/D57E/D86V/E43K/F76Y/K127E/L162R/M171V/P40G/Q125H/Q99D/R33Q/R42Y/R54Q/S133A/S66F/T210M/V115G/Y107V/Y59L/Y89S); DRB1*0301 (Homo sapiens, UniProt P01903+P01911, A100K/A102G/A103R/A169T/F55Y/I96L/K41T/L162R/M171V/P40S/Q125H/Q178H/Q39Y/R42S/S66N/T106N/T262R/W38E/Y61H); DRB1*0901 (Homo sapiens, UniProt P01903+P01911, A100R/A103E/D57H/D86V/F55Y/F60I/F76Y/I96F/K127E/L162R/M171V/P40D/Q125H/Q99R/R33Q/R42F/S133A/S66N/T210M/V115G/W38K/Y107V/Y59G/Y89S); DRB3*0101 (Homo sapiens, UniProt P01903+P79483); DRB1*0802 (Homo sapiens, UniProt P01903+P01911, A100R/A103L/A169T/F76Y/H45Y/I96F/K41T/L162R/M171V/P40S/Q125H/Q178H/Q39Y/Q99D/R218S/R42G/S66Y/V115G/W38E); DRB1*0401 (Homo sapiens, UniProt P01903+P01911, A100K/A169T/F76Y/I96L/K127E/L162R/M171V/N62H/P40V/Q125Y/R42H/S133A/S149N/S66Y/V115G/V209L/W38E); DRB1*0101 (Homo sapiens, UniProt P01903+P01911, A100R/D57E/F55L/F60I/F76Y/I96L/L162R/M171V/P40L/Q125E/R42F/V115G/Y59C); DRB5*0101 (Homo sapiens, UniProt P01903+Q30154); DRB4*0101 (Homo sapiens, UniProt P01903+P13762, G164S).

Experiment in all cases: biochemical
What all share (format): binding

Read-outs that look alike come from different tables or passages of the source. Where no end group is shown, it is not given here.

Sequence of DRB1*1302 (P01903 26-254 limits assumed, other chains not shown): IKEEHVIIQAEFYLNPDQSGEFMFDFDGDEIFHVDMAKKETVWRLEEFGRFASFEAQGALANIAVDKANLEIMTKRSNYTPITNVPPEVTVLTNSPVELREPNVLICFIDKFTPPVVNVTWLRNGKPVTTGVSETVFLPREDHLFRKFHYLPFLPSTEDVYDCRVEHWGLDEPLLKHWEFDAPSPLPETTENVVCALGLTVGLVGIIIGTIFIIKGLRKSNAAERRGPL
Sequence of DRB1*0301 (P01903 26-254, other chains not shown): as the sequence (P01903 26-254 limits assumed, other chains not shown) above

`CC[C@H](C)[C@H](NC(=O)[C@H](C)NC(=O)[C@H](CC(N)=O)NC(=O)[C@H](C)NC(=O)[C@H](CC(C)C)NC(=O)[C@H](CCC(N)=O)NC(=O)[C@H](CCCNC(=N)N)NC(=O)[C@H](Cc1c[nH]cn1)NC(=O)[C@H](CCC(=O)O)NC(=O)[C@@H]1CCCN1)C(=O)N[C@@H](Cc1ccccc1)C(=O)N[C@@H](CCCCN)C(=O)N[C@@H](CC(C)C)C(=O)N[C@H](C(=O)N[C@@H](Cc1ccc(O)cc1)C(=O)N[C@@H](CCC(N)=O)C(=O)N[C@@H](CC(N)=O)C(=O)O)[C@@H](C)O` [NS5 558-574]: the IC50 at DRB1*1501 amounted to 401 nM; on DRB1*1302 (competitive inhibition of radiolabeled standard peptide, DRB1*1302, read-out: Binding Affinity (nM) DRB1*1302) it was 1400 nM; against DRB1*0404, 2.65 µM; against DRB1*0405, 667 nM; at DRB1*0701, 134 nM; against DRB1*0301, 586 nM. In addition, the IC50 came to 1930 nM at DRB1*0901 (competitive inhibition of radiolabeled standard peptide, DRB1*0901, read-out: Binding Affinity (nM) DRB1*0901); 1080 nM on DRB3*0101; 539 nM on DRB1*0802; 2820 nM at DRB1*0401; 489 nM on DRB1*0101; 0.391 µM against DRB5*0101.
As to `CC[C@H](C)[C@H](NC(=O)CNC(=O)[C@H](CO)NC(=O)[C@H](CCCCN)NC(=O)[C@H](CCCCN)NC(=O)[C@H](Cc1ccc(O)cc1)NC(=O)[C@H](CC(C)C)NC(=O)[C@H](CC(=O)O)NC(=O)[C@H](Cc1ccccc1)NC(=O)[C@H](CCC(=O)O)NC(=O)[C@@H](N)CCCCN)C(=O)N[C@H](C(=O)N[C@@H](CCC(=O)O)C(=O)N[C@H](C(=O)N[C@@H](CC(=O)O)C(=O)N[C@@H](CCCNC(=N)N)C(=O)N[C@H](C(=O)O)[C@@H](C)O)C(C)C)[C@@H](C)O` [NS5 23-39], the IC50 against DRB4*0101 is 3.43 µM; against DRB3*0101, 5800 nM; against DRB5*0101, 10.1 µM.
`CC(C)C[C@H](NC(=O)[C@H](CCCNC(=N)N)NC(=O)[C@H](CCCCN)NC(=O)[C@@H]1CCCN1C(=O)[C@H](CO)NC(=O)[C@H](CC(=O)O)NC(=O)[C@H](C)NC(=O)[C@H](CCC(N)=O)NC(=O)[C@H](Cc1ccccc1)NC(=O)[C@H](CCCCN)NC(=O)[C@H](Cc1ccc(O)cc1)NC(=O)[C@H](CCC(N)=O)NC(=O)[C@H](CCC(=O)O)NC(=O)[C@@H](N)[C@@H](C)O)C(=O)N[C@@H](C)C(=O)O` [NS1 29-43]: the IC50 at DRB4*0101 stood at 14.4 µM; against DRB3*0101 it was 11 nM; at DRB5*0101, 0.023 µM.
On the same counts, the results for ALTGATEIQNSGGTS [Envelope 261-275] are 8.57 µM, 17500 nM and 3.67 µM.
Consider `CC[C@H](C)[C@H](NC(=O)[C@H](CC(C)C)NC(=O)[C@H](CCC(=O)O)NC(=O)[C@H](CC(=O)O)NC(=O)[C@H](CCC(N)=O)NC(=O)[C@@H]1CCCN1C(=O)[C@H](CCCNC(=N)N)NC(=O)[C@H](CS)NC(=O)[C@@H]1CCCN1C(=O)[C@@H](NC(=O)[C@@H](NC(=O)[C@H](CC(C)C)NC(=O)[C@H](CCCCN)NC(=O)[C@H](CCCNC(=N)N)NC(=O)CNC(=O)[C@H](CC(=O)O)NC(=O)[C@@H](N)CCCCN)C(C)C)C(C)C)C(=O)O` [NS5 719-735], for which the IC50 was 17.8 µM against DRB4*0101, 5680 nM against DRB3*0101 and 3.44 µM at DRB5*0101.
On the same counts, the results for `CC[C@H](C)[C@H](NC(=O)[C@@H](N)C(C)C)C(=O)N[C@@H](CC(C)C)C(=O)N[C@H](C(=O)N[C@@H](CC(=O)O)C(=O)NCC(=O)N1CCC[C@H]1C(=O)N[C@@H](CCC(=O)O)C(=O)N[C@@H](CCCNC(=N)N)C(=O)N[C@H](C(=O)N[C@H](C(=O)N[C@@H](CC(C)C)C(=O)N[C@@H](C)C(=O)NCC(=O)N1CCC[C@H]1C(=O)O)[C@@H](C)CC)C(C)C)[C@@H](C)O` [NS3 433-447] are 3.51 µM, 134 nM and 8.29 µM.
As for TNTFVLKKEVSETQH [Envelope 301-315], the IC50 came to 2.19 µM at DRB4*0101, 2830 nM against DRB3*0101 and 4.89 µM on DRB5*0101.
On to `CC[C@H](C)[C@H](NC(=O)[C@H](C)NC(=O)[C@H](CC(N)=O)NC(=O)[C@H](C)N)C(=O)N[C@@H](Cc1ccccc1)C(=O)N[C@@H](CCCCN)C(=O)N[C@@H](CC(C)C)C(=O)N[C@H](C(=O)N[C@@H](Cc1ccc(O)cc1)C(=O)N[C@@H](CCC(N)=O)C(=O)N[C@@H](CC(N)=O)C(=O)N[C@@H](CCCCN)C(=O)N[C@H](C(=O)N[C@H](C(=O)N[C@@H](CCCCN)C(=O)N[C@H](C(=O)N[C@@H](CCC(N)=O)C(=O)O)C(C)C)C(C)C)C(C)C)[C@@H](C)O` [NS5 564-580], for which the IC50 is 28 nM against DRB1*1501; 11 nM against DRB1*1302; 4.81 µM against DRB1*0404; 1680 nM at DRB1*0405; 25 nM on DRB1*0701; 222 nM against DRB1*0301. Also, the IC50 is 100 nM at DRB1*0901; 576 nM on DRB3*0101; 2600 nM against DRB1*0802; 390 nM against DRB1*0401; 19 nM against DRB1*0101; 0.305 µM on DRB5*0101.
Turning to `CC[C@H](C)[C@H](N)C(=O)N[C@H](C(=O)N[C@H](C(=O)NCC(=O)N[C@H](C(=O)NCC(=O)N[C@@H](CC(=O)O)C(=O)N[C@@H](CC(N)=O)C(=O)N[C@@H](C)C(=O)N[C@@H](CC(C)C)C(=O)N[C@@H](CCCCN)C(=O)N[C@H](C(=O)N[C@@H](CC(N)=O)C(=O)N[C@@H](Cc1c[nH]c2ccccc12)C(=O)N[C@@H](Cc1ccc(O)cc1)C(=O)O)[C@@H](C)CC)[C@@H](C)CC)[C@@H](C)CC)C(C)C` [Envelope 376-390], the IC50 at DRB4*0101 came to 1.24 µM; against DRB3*0101 it was 15 nM; against DRB5*0101 it was 1.25 µM.
The corresponding values for `CC[C@H](C)[C@H](N)C(=O)N[C@H](C(=O)NCC(=O)N[C@H](C(=O)N[C@@H](CC(C)C)C(=O)N[C@@H](CCC(=O)O)C(=O)N[C@@H](CCC(N)=O)C(=O)NCC(=O)N[C@@H](CCCCN)C(=O)N[C@@H](CCCNC(=N)N)C(=O)N[C@H](C(=O)N[C@@H](CC(C)C)C(=O)N[C@H](C(=O)N1CCC[C@H]1C(=O)N[C@@H](CCC(N)=O)C(=O)O)[C@@H](C)O)[C@@H](C)O)C(C)C)[C@@H](C)CC` [NS1 93-107] are 3.7 µM, 4350 nM and 3.07 µM.
The corresponding values for AILPEYGTLGLECSP [Envelope 171-185] are 0.787 µM, 12600 nM and 17.2 µM.
`CC[C@H](C)[C@H](NC(=O)[C@H](CC(C)C)NC(=O)[C@H](CO)NC(=O)CNC(=O)[C@H](CS)NC(=O)[C@H](Cc1c[nH]c2ccccc12)NC(=O)[C@H](CCC(N)=O)NC(=O)[C@H](CC(=O)O)NC(=O)[C@H](CCC(=O)O)NC(=O)[C@H](CCCNC(=N)N)NC(=O)[C@H](CCCCN)NC(=O)CNC(=O)[C@H](CC(C)C)NC(=O)[C@@H](N)Cc1ccc(O)cc1)C(=O)NCC(=O)N[C@@H](CC(C)C)C(=O)N[C@H](C(=O)O)[C@@H](C)O` [NS5 838-854]: the IC50 against DRB4*0101 is 1.59 µM; at DRB3*0101, 79 nM; against DRB5*0101, 15.5 µM.
The corresponding values for `CC(C)C[C@H](NC(=O)[C@H](CCCCN)NC(=O)[C@@H](NC(=O)[C@H](CCCCN)NC(=O)[C@H](CCC(N)=O)NC(=O)[C@H](Cc1ccc(O)cc1)NC(=O)[C@H](CCC(=O)O)NC(=O)[C@@H](NC(=O)[C@H](CC(=O)O)NC(=O)[C@H](Cc1ccccc1)NC(=O)[C@@H](NC(=O)[C@@H](N)CCCCN)[C@@H](C)O)[C@@H](C)O)[C@@H](C)O)C(=O)N[C@@H](CC(N)=O)C(=O)N[C@@H](CC(=O)O)C(=O)N[C@@H](Cc1c[nH]c2ccccc12)C(=O)O` [NS3 389-403] are 9.91 µM, 4530 nM and 2.33 µM.
